Assay [1] concerns the target Fms kinase (Homo sapiens (Human), UniProt P07333). Put plainly: Fms kinase biochemical activity assay (AlphaScreen, biotin-(E4Y)10 phosphorylation). In a few lines:
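Recombinant human Fms phosphorylating 30 nM biotin-(E4Y)10 with 100 μM ATP (1 ng/well enzyme) in Hepes pH 7.5 buffer with Mg2+/Mn2+, 5% DMSO, 20 min at 30 °C. Phosphotyrosine detected by AlphaScreen streptavidin donor/PY20 acceptor beads; IC50 from signal versus compound concentration.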
On the technique in general: Bead proximity is the source of the signal in Alpha formats.

In assay [2] the target is c-Kit kinase (Homo sapiens (Human), UniProt P10721). Put plainly: c-Kit kinase biochemical activity assay (AlphaScreen, biotin-(E4Y)10 phosphorylation).
Where [3] appears, read: read-out: Biochemical activity (IC50 μM) Fms.

Where two headings read alike, the source gives them in different places. Some results are limits rather than exact numbers.

c-Kit kinase, sequence (P10721 26-976): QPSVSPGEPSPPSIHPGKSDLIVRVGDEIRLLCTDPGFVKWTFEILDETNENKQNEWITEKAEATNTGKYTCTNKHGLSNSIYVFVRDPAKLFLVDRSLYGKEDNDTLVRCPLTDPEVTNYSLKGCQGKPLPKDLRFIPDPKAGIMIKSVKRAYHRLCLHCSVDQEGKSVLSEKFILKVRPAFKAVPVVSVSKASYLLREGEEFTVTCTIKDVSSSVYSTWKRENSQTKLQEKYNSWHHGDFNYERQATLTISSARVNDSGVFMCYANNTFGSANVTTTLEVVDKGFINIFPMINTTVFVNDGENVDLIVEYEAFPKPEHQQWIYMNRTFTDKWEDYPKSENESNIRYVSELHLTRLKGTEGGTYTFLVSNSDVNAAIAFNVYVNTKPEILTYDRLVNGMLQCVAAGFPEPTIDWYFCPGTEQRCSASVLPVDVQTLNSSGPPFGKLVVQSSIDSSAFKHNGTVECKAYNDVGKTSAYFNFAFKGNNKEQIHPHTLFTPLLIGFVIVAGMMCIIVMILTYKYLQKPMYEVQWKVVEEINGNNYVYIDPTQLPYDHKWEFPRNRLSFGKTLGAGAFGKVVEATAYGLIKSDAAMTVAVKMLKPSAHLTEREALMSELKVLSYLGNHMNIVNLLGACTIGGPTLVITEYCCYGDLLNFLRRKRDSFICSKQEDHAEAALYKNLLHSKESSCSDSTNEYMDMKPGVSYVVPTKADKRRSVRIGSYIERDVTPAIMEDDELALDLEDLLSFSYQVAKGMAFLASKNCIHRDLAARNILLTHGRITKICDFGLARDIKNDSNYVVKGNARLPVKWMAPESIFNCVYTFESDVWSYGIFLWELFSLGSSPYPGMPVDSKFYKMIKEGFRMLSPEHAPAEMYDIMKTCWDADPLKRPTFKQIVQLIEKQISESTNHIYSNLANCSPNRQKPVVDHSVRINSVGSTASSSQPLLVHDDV
Fms kinase, sequence (P07333 20-972): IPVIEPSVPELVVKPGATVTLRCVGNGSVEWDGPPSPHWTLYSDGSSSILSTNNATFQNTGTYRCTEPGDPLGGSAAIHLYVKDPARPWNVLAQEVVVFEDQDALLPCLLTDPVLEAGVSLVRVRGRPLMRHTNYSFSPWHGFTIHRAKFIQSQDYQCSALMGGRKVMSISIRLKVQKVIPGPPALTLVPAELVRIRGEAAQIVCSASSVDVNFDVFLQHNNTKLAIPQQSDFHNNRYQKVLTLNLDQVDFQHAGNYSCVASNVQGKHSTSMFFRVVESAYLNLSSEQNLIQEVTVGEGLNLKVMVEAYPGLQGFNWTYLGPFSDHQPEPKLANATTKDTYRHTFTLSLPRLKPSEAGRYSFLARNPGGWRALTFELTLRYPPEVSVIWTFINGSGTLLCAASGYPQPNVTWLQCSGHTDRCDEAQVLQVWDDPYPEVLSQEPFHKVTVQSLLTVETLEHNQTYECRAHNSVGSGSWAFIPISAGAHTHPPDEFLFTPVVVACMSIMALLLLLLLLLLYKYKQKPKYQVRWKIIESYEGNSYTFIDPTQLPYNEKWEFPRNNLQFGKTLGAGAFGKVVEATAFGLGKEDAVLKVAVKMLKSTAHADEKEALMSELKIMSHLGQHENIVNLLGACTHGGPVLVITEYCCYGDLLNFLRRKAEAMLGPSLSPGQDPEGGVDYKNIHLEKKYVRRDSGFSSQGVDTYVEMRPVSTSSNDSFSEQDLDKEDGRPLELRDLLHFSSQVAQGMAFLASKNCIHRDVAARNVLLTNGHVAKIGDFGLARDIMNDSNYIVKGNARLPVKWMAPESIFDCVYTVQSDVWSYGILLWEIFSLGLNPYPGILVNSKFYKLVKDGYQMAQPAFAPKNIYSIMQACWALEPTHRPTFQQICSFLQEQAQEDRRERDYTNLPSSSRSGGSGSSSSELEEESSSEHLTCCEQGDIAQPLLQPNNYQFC

For `Cc1cnc2[nH]cc(Cc3cnc(NCc4cccnc4OC4CCCC4)nc3)c2c1` [Compound P-2148, (2-Cyclopentyloxy-pyridin-3-ylmethyl)-[5-(5-methyl-1H-pyrrolo[2,3-b]pyridin-3-ylmethyl)-pyrimidin-2-yl]-amine], the “Biochemical activity selectivity (Kit IC50/Fms IC50)” value in assay [1] is given as less than 20. Besides, the IC50 – broadly, the concentration needed to halve the response being measured – in assay [1] (setting [3]) is less than 0.1 µM; in assay [2], more than 0.1 µM.
With `COc1ccc(CNc2ncc(Cc3c[nH]c4ncc(Cl)cc34)s2)cn1` [Compound P-2154, [5-(5-Chloro-1H-pyrrolo[2,3-b]pyridin-3-ylmethyl)-thiazol-2-yl]-(6-methoxy-pyridin-3-ylmethyl)-amine], the “Biochemical activity selectivity (Kit IC50/Fms IC50)” value in assay [1] was less than 20. For the same compound, the IC50 in assay [1] (setting [3]) and in assay [2] was less than 0.1 µM in each case.
Regarding `Cn1cc(F)cc(CNc2ncc(Cc3c[nH]c4ncc(Cl)cc34)cn2)c1=O` [Compound P-2157, 3-{[5-(5-Chloro-1H-pyrrolo[2,3-b]pyridin-3-ylmethyl)-pyrimidin-2-ylamino]-methyl}-5-fluoro-1-methyl-1H-pyridin-2-one], the “Biochemical activity selectivity (Kit IC50/Fms IC50)” value in assay [1] is on record as less than 20. Moreover, the IC50 in assay [1] (setting [3]) and in assay [2] was more than 0.1 µM in each case.
Turning to `COc1cccc(CNc2ncc(Cc3c[nH]c4ncc(Cl)cc34)s2)n1` [Compound P-2163, [5-(5-Chloro-1H-pyrrolo[2,3-b]pyridin-3-ylmethyl)-thiazol-2-yl]-(6-methoxy-pyridin-2-ylmethyl)-amine], in assay [1], the “Biochemical activity selectivity (Kit IC50/Fms IC50)” value was less than 20. Also, the values for the half-inhibitory concentration (IC50) in assay [1] (setting [3]) and in assay [2] were less than 0.1 µM and more than 0.1 µM, respectively.
`COc1ncc(CNc2ccc(Cc3c[nH]c4ncc(Cl)cc34)c(F)n2)cc1F` [Compound P-2165, [5-(5-Chloro-1H-pyrrolo[2,3-b]pyridin-3-ylmethyl)-6-fluoro-pyridin-2-yl]-(5-fluoro-6-methoxy-pyridin-3-ylmethyl)-amine]: the IC50 in assay [1] (100 μM ATP, read-out: Biochemical (IC50 μM) Fms) is less than 0.1 µM; in assay [1] (setting [3]) it was less than 0.1 µM; in assay [2] it was more than 0.1 µM. Further, the “Biochemical activity selectivity (Kit IC50/Fms IC50)” value in assay [1] is given as more than 20.
For the compound `Fc1cc(Cc2c[nH]c3ncc(Cl)cc23)cnc1NCc1ccc(C(F)(F)F)nc1` [Compound P-2172, [5-(5-Chloro-1H-pyrrolo[2,3-b]pyridin-3-ylmethyl)-3-fluoro-pyridin-2-yl]-(6-trifluoromethyl-pyridin-3-ylmethyl)-amine], in assay [1], the “Biochemical activity selectivity (Kit IC50/Fms IC50)” value is recorded as less than 20. The IC50 in assay [1] (setting [3]) and in assay [2] was less than 0.1 µM in each case.
As for `Fc1cncc(CNc2ncc(Cc3c[nH]c4ncc(Cl)cc34)cn2)c1` [Compound P-2176, [5-(5-Chloro-1H-pyrrolo[2,3-b]pyridin-3-ylmethyl)-pyrimidin-2-yl]-(5-fluoro-pyridin-3-ylmethyl)-amine], the “Biochemical activity selectivity (Kit IC50/Fms IC50)” value in assay [1] is reported as more than 20. Besides, the values for the IC50 in assay [1] (setting [3]) and in assay [2] were less than 0.1 µM and more than 0.1 µM, respectively.
Taken in the same sequence, the figures for `CCS(=O)(=O)Nc1ccccc1CNc1ccc(Cc2c[nH]c3ncc(C)cc23)c(F)n1` [Compound P-2198, Ethanesulfonic acid (2-{[6-fluoro-5-(5-methyl-1H-pyrrolo[2,3-b]pyridin-3-ylmethyl)-pyridin-2-ylamino]-methyl}-phenyl)-amide] were less than 20, less than 0.1 µM and more than 0.1 µM.
As to `CCS(=O)(=O)Nc1cc(F)cc(CNc2ccc(Cc3c[nH]c4ncc(C)cc34)c(F)n2)c1` [Compound P-2202, Ethanesulfonic acid (3-fluoro-5-{[6-fluoro-5-(5-methyl-1H-pyrrolo[2,3-b]pyridin-3-ylmethyl)-pyridin-2-ylamino]-methyl}-phenyl)-amide], the “Biochemical activity selectivity (Kit IC50/Fms IC50)” value in assay [1] is less than 20. For the same compound, the IC50 was less than 0.1 µM in assay [1] (setting [3]) and more than 0.1 µM in assay [2].

Source of the values: US9096593B2, “Compounds and methods for kinase modulation, and indications therefor” (Plexxikon Inc., priority 2009, dated 2015).
